We go through one compound from the NIST ThermoML archive (doi:10.1016/j.fluid.2014.10.044).

For orientation: viscosity means the internal friction of a fluid under shear. Usually mass density stands for mass per unit of volume.

The data set in a line: xn = mol fraction of the nth substance listed. The conditions noted are these: 298.15 K, 101 kPa, Liquid; for viscosity: Concentric cylinders viscometry; for mass density: Vibrating tube method.

Numbers after ± are expanded uncertainties.

Take `O=C(O)CO` [2-hydroxyethanoic acid] + C[N+](C)(C)CCO.[Cl-]: under “x2 = 0.25”, the viscosity is listed as 311.21 ± 19 mPa·s and the mass density worked out at 1266.5 ± 0.9 kg/m3. Where the note is “x2 = 0.5”, the viscosity is 803.76 ± 74 mPa·s and the mass density is listed as 1197.6 ± 1 kg/m3.
